What is called IC50 is the concentration needed to halve the response being measured. Higher therefore signals lower potency.

The source of these data is US12479834B2, “Phenol compound or salt thereof” (TAIHO PHARMACEUTICAL CO., LTD., priority 2019, dated 2025).

For assay [1], the target named is T1, G12C K-Ras4B (1-169) (Homo sapiens, UniProt P01116, G12C).
T1 construct: G12C K-Ras4B (1-169) protein, which was a KRAS G12C mutant; His tag (N, cleaved yes); made in house; host or cells: E. coli BL21 (DE3)
Put plainly: Binding to KRAS G12C mutant, compound binding rate by LC-MS. The settings on record: final compound concentration 2 μM, 1 μM protein, 2 hours at 25° C. An excerpt:
K-Ras4B (1-169) protein was expressed in E. coli strain BL21 (DE3) by synthesizing a nucleotide sequence encoding the amino acid sequence represented by GenPept ID NP_004976 as a sequence optimized for E. coli by use of GeneArt Technology (Life Technologies Corp.) such that the protein was N-terminally His-tagged and fused with a TEV protease recognition sequence (ENLYFQG). The expressed His-tagged K-Ras4B (1-169) was purified through a Ni column, then cleaved at its tag with N-terminally His-tagged TEV protease, and passed through a Ni column again to recover a flow-through fraction, which was further purified by anion-exchange chromatography to obtain the protein. G12C K-Ras4B (1-169) protein, which was a KRAS G12C mutant, was obtained in the same way as in the K-Ras4B(1-169) protein except that glycine at position 12 of the amino acid sequence represented by GenPept ID NP_004976 was mutated to cysteine.
The K-Ras4B (1-169) protein and the G12C K-Ras4B (1-169) protein were mixed and diluted with a buffer solution (1×TBS and 0.1 mM TCEP) to prepare a protein solution containing 1 μM each of the proteins. Each test compound was dissolved at 10 mM in DMSO and further diluted 10-fold with DMSO to make a 1 mM solution. Then, the solution was diluted 5-fold with DMSO to make a 200 μM solution. The 200 μM solution was further diluted 5-fold to make a […] solution. 1 μL of the 40 μM test compound was added to 19 μL of the 1 μM protein solution such that the final compound concentration was 2 μM. The mixture was stored for 2 hours in an incubator of 25° C., and the reaction was terminated by the addition of 80 μL of a 1×TBS solution containing 0.2% formic acid, followed by LC-MS measurement.
The LC-MS measurement was performed by using Xevo G2-S Q-Tof manufactured by Waters Corp., performing reverse-phase chromatography with a desalting column, and obtaining mass spectra of positive ions by electrospray. For the mass spectra, spectra of polyvalent ions were collectively converted to molecular weights by the MaxEnt technique using OpenLynx software, and then, a compound binding rate was obtained from the ratio of […].
The binding rates of test compounds having a final compound concentration of 2 μM for G12C K-Ras4B (1-169) are shown in the table below. The binding rate for G12C K-Ras4B (1-169) is rated “A” for 80% or more, “B” for 60% or more and less than 80%, “C” for 40% or more and less than 60%, “D” for 20% or more and less than 40%, and “E” for less than 20%.

Assay [2] deals with T2, KRAS G12C mutant (Homo sapiens, UniProt P01116, G12C).
T2 construct: 50 μM G12C K-Ras4B (1-169) protein and 1 mM BODIPY® FL GDP; His tag (N, cleaved yes); made in house; host or cells: E. coli BL21 (DE3)
As to the kind of experiment: Inhibition of SOS1-mediated nucleotide (GDP-GTP) exchange reaction of KRAS G12C mutant, BODIPY FL GDP fluorescence. The format is biochemical. The settings on record: preincubated 25° C. 4 hours with 25 nM KRAS G12C bound with BODIPY FL GDP; SOS1 100 nM, GppNHp 1 μM, 30 minutes. An excerpt: SOS1 protein was expressed in E. coli strain BL21 (DE3) by synthesizing a nucleotide sequence encoding the amino acid sequence represented by GenPept ID NP_005624 as a sequence optimized for E. coli by use of GeneArt Technology (Life Technologies Corp.) such that the protein was N-terminally His-tagged and fused with a TEV protease recognition sequence (ENLYFQG). The expressed His-tagged SOS1 (564-1049) was purified through a Ni column, then cleaved at its tag with N-terminally His-tagged TEV protease, and passed through a Ni column again to recover a flow-through fraction to obtain the protein.
Each compound was studied for its inhibitory effect on the exchange reaction of GDP into GppNHp in BODIPY® FL bound with the KRAS G12C mutant by fluorescence measurement using the G12C K-Ras4B (1-169) protein and the SOS1 protein.
For the preparation of the KRAS G12C mutant bound with BODIPY® FL GDP, first, 50 μM G12C K-Ras4B (1-169) protein and 1 mM BODIPY® FL GDP (Invitrogen Corp., G22360) were incubated for 1 hour in a buffer solution (20 mM Tris-HCl (pH 7.5), 50 mM NaCl, and 1 mM DTT) in ice in the presence of 2.5 mM EDTA. Then, MgCl2 was added thereto at a final concentration of 10 mM, then the mixture was incubated at room temperature for 30 minutes, and then, the protein was passed through a NAP-5 column for removal of free nucleotides and used for compound evaluation.
For the measurement of the inhibitory activity of compounds against nucleotide exchange reaction, first, the compound of the present invention was serially diluted with DMSO. Subsequently, the serially diluted solution of the compound of the present invention in DMSO (final concentration of DMSO: 5%) and the KRAS G12C mutant (25 nM) bound with BODIPY® FL GDP were added into a reaction buffer solution (20 mM Tris-HCl (pH 7.5), 100 mM NaCl, 1 mM MgCl2, 2 mM DTT, and 0.1% Tween 20), and the mixture was preincubated at 25° C. for 4 hours. Then, Son of Sevenless Homolog 1 (SOS1, amino acid region: 564-1049) and GppNHp (GMPPNP, Jena Bioscience GmbH, NU-401-50) were added thereto at final concentrations of 100 nM and 1 μM, respectively, and the mixture was reacted for 30 minutes. The change in fluorescence intensity of BODIPY® FL (excitation wavelength: 485 nm, fluorescence wavelength: 520 nm) between immediately after the start of reaction and after 30 minutes from the start of reaction was standardized, and then, the compound concentration at which 50% inhibition was achieved was calculated as IC50 (nM) when the signal value for only DMSO was defined as 0% inhibition and the signal value for no addition of GppNHp was defined as 100% inhibition.

Take `C=CC(=O)N1CC(NC(=O)c2cccc(CNc3cc(C(C)(C)C)c(Cl)cc3O)c2)C1` [Example 2, N-(1-Acryloylazetidin-3-yl)-3-(((5-(tert-butyl)-4-chloro-2-hydroxyphenyl)amino)methyl)benzamide]: the “binding rate for G12C K-Ras4B (1-169)” value in assay [1] is “B (60% or more and less than 80%)”. The IC50 in assay [2] came to 815 nM.

`C=CC(=O)N1CC(NC(=O)c2ccc(CNc3cc(C(C)(C)C)c(Cl)cc3O)cc2)C1` [Example 3, N-(1-Acryloylazetidin-3-yl)-4-(((5-(tert-butyl)-4-chloro-2-hydroxyphenyl)amino)methyl)benzamide]: the “binding rate for G12C K-Ras4B (1-169)” value in assay [1] is “B (60% or more and less than 80%)”. This compound returned an IC50 in assay [2] of 753 nM.

With `C=CC(=O)N1CC[C@@H](N(C)C(=O)c2ccc(CNc3cc(C(C)(C)C)c(Cl)cc3O)o2)C1` [Example 6, (R)—N-(1-Acryloylpyrrolidin-3-yl)-5-(((5-(tert-butyl)-4-chloro-2-hydroxyphenyl)amino)methyl)-N-methylfuran-2-carboxamide], in assay [1], the “binding rate for G12C K-Ras4B (1-169)” value is “D (20% or more and less than 40%)”. In assay [2], this compound yielded an IC50 of 164 nM.

Turning to `C=CC(=O)N1CC(NC(=O)c2ccc(CNc3cc(C(C)(C)C)c(Cl)cc3O)s2)C1` [Example 7, N-(1-Acryloylazetidin-3-yl)-5-(((5-(tert-butyl)-4-chloro-2-hydroxyphenyl)amino)methyl)thiophene-2-carboxamide], the “binding rate for G12C K-Ras4B (1-169)” value in assay [1] is “A (80% or more)”. In addition, half-maximal inhibition in assay [2] (IC50) was put at 1510 nM.

`C=CC(=O)N1CC(NC(=O)c2csc(CNc3cc(C(C)(C)C)c(Cl)cc3O)n2)C1` [Example 8, N-(1-Acryloylazetidin-3-yl)-2-(((5-(tert-butyl)-4-chloro-2-hydroxyphenyl)amino)methyl)thiazole-4-carboxamide]: the “binding rate for G12C K-Ras4B (1-169)” value in assay [1] is “A (80% or more)”. This compound registered an IC50 in assay [2] of 58 nM.

Turning to `C=CC(=O)N1CC(NC(=O)c2cnc(CNc3cc(C(C)(C)C)c(Cl)cc3O)s2)C1` [Example 9, N-(1-Acryloylazetidin-3-yl)-2-(((5-(tert-butyl)-4-chloro-2-hydroxyphenyl)amino)methyl)thiazole-5-carboxamide], in assay [1], the “binding rate for G12C K-Ras4B (1-169)” value is given as “A (80% or more)”. Also, the IC50 in assay [2] came out at 39 nM.

Regarding `C=CC(=O)N1CC(NC(=O)c2nc(CNc3cc(C(C)(C)C)c(Cl)cc3O)cs2)C1` [Example 10, N-(1-Acryloylazetidin-3-yl)-4-(((5-(tert-butyl)-4-chloro-2-hydroxyphenyl)amino)methyl)thiazole-2-carboxamide], the “binding rate for G12C K-Ras4B (1-169)” value in assay [1] is reported as “A (80% or more)”. In assay [2], this compound came in with an IC50 of 67 nM.

For the compound `C=CC(=O)N1CC(NC(=O)c2cnc(CNc3cc(C(C)(C)C)c(Cl)cc3O)o2)C1` [Example 11, N-(1-Acryloylazetidin-3-yl)-2-(((5-(tert-butyl)-4-chloro-2-hydroxyphenyl)amino)methyl)oxazole-5-carboxamide], the “binding rate for G12C K-Ras4B (1-169)” value in assay [1] is “B (60% or more and less than 80%)”. Moreover, the IC50 in assay [2] was found to be 123 nM.

On to `C=CC(=O)N1CC(NC(=O)c2ncc(CNc3cc(C(C)(C)C)c(Cl)cc3O)o2)C1` [Example 12, N-(1-Acryloylazetidin-3-yl)-5-(((5-(tert-butyl)-4-chloro-2-hydroxyphenyl)amino)methyl)oxazole-2-carboxamide], for which, in assay [1], the “binding rate for G12C K-Ras4B (1-169)” value was “C (40% or more and less than 60%)”. Further, in assay [2], the IC50 came to 954 nM.

On to `C=CC(=O)N1CC(NC(=O)c2coc(CNc3cc(C(C)(C)C)c(Cl)cc3O)n2)C1` [Example 13, N-(1-Acryloylazetidin-3-yl)-2-(((5-(tert-butyl)-4-chloro-2-hydroxyphenyl)amino)methyl)oxazole-4-carboxamide], for which the “binding rate for G12C K-Ras4B (1-169)” value in assay [1] is reported as “A (80% or more)”. Further, the IC50 in assay [2] was found to be 735 nM.

As to `C=CC(=O)N1CC(NC(=O)c2nc(CNc3cc(C(C)(C)C)c(Cl)cc3O)co2)C1` [Example 14, N-(1-Acryloylazetidin-3-yl)-4-(((5-(tert-butyl)-4-chloro-2-hydroxyphenyl)amino)methyl)oxazole-2-carboxamide], in assay [1], the “binding rate for G12C K-Ras4B (1-169)” value was “A (80% or more)”. 420 nM corresponded to half-maximal inhibition in assay [2] (IC50).

`C=CC(=O)N1CC(NC(=O)c2ccnc(CNc3cc(C(C)(C)C)c(Cl)cc3O)c2)C1` [Example 15, N-(1-Acryloylazetidin-3-yl)-2-(((5-(tert-butyl)-4-chloro-2-hydroxyphenyl)amino)methyl)isonicotinamide]: in assay [1], the “binding rate for G12C K-Ras4B (1-169)” value is “D (20% or more and less than 40%)”. Moreover, in assay [2], the IC50 came out at 825 nM.

For `C=CC(=O)N1CC(NC(=O)c2cc(CNc3cc(C(C)(C)C)c(Cl)cc3O)ccn2)C1` [Example 16, N-(1-Acryloylazetidin-3-yl)-4-(((5-(tert-butyl)-4-chloro-2-hydroxyphenyl)amino)methyl)picolinamide], the “binding rate for G12C K-Ras4B (1-169)” value in assay [1] is listed as “A (80% or more)”. In assay [2], this compound gave an IC50 of 3010 nM.

Take `C=CC(=O)N1CC(NC(=O)c2cncc(CNc3cc(C(C)(C)C)c(Cl)cc3O)c2)C1` [Example 17, N-(1-Acryloylazetidin-3-yl)-5-(((5-(tert-butyl)-4-chloro-2-hydroxyphenyl)amino)methyl)nicotinamide]: the “binding rate for G12C K-Ras4B (1-169)” value in assay [1] is “D (20% or more and less than 40%)”. The same compound yielded an IC50 in assay [2] of 2070 nM.

`C=CC(=O)N1CC(NC(=O)c2nc(CNc3cc(C(C)(C)C)c(Cl)cc3O)cn2C)C1` [Example 19, N-(1-Acryloylazetidin-3-yl)-4-(((5-(tert-butyl)-4-chloro-2-hydroxyphenyl)amino)methyl)-1-methyl-1H-imidazole-2-carboxamide]: the “binding rate for G12C K-Ras4B (1-169)” value in assay [1] is “A (80% or more)”. In assay [2], this compound yielded an IC50 of 233 nM.
